In patent US11071721B2, “Bicyclic amide compounds and methods of use thereof” (Genentech, Inc., priority 2016, dated 2021) one finds Ki data, which are given here for eleven molecules.

pKi: −log10 of the molar value.

The assay deals with human RIP1 kinase domain (2-375) (Homo sapiens (Human), UniProt Q13546). As to the kind of experiment: RIP1 kinase inhibition assay (Transcreener ADP biochemical enzyme assay). The conditions noted are these: Ki app (Morrison tight-binding fit); 50 nM enzyme, 50 uM ATP, 2 hours incubation, fluorescence polarization. Put shortly: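 Baculovirus-expressed human RIP1 kinase domain (2-375), 50 nM, incubated 2 h with compound in pH 7.5 Hepes with 30 mM MgCl2, 1 mM DTT, 50 uM ATP, 0.5% DMSO. ADP detected by Transcreener fluorescence polarization (antibody/AlexaFluor 633 tracer displacement). Ki^app from Morrison tight-binding fit of fractional activity.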
Sequence of human RIP1 kinase domain (2-375) (Q13546 2-375): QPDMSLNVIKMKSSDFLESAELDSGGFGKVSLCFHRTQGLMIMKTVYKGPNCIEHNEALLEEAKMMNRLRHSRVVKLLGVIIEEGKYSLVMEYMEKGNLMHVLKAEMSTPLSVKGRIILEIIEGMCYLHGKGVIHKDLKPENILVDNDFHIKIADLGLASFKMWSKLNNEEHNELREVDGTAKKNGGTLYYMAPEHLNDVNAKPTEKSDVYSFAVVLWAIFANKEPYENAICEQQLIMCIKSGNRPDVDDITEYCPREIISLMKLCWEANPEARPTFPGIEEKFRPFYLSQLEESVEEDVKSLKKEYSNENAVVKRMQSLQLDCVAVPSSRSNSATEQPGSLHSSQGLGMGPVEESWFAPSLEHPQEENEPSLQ

The term pKi denotes the negative decadic logarithm of the Ki, by convention in mol/L. Lower therefore signals a large Ki. `O=C(c1nc2n(n1)[C@@H](c1ccccc1F)CC2)N1CC(F)(F)C1` (single isomer, unassigned) [Example 11] showed a negative-log Ki (pKi) of 8.05.

For the molecule `CC1(F)CN(C(=O)c2nc3n(n2)[C@@H](c2ccccc2)CC3(F)F)C1` (single isomer, unassigned) [Example 38], the pKi is 7.32. `O=C(c1nc2n(n1)C(c1ccccc1F)CC2)N1CC(F)(F)C1` (racemic) [Example 23, (3,3-difluroroazetidin-1-yl)-[5-(2-fluorophenyl)-6,7-dihydro-5H-pyrrolo[1,2-b][1,2,4]triazol-2-yl]methanone] gave a pKi of 7.36. For `O=C(c1nc2n(n1)[C@H](c1ccccc1)C[C@@H]2F)N1CCC(Cc2ccccc2)C1` (mixture of isomers) [Example 93, (3-benzylpyrrolidin-1-yl)-[rac-(5S,7S)-7-fIuoro-5-phenyl-6,7-dihydro-5H-pyrrolo[1,2-b][1,2,4]triazol-2-yl]methanone], the pKi is 7.52. The pKi values of the last two molecules are within 0.2 log units of each other. `CN(CC(F)(F)F)C(=O)c1nc2n(n1)[C@H](c1ccccc1)C[C@@H]2F` (racemic) [Example 92, rac-(5S,7S)-7-fluoro-N-methyl-5-phenyl-N-(2,2,2-trifluoroethyl)-6,7-dihydro-5H-pyrrolo [1,2-b][1,2,4]triazole-2-carboxamide] gave a negative logarithm of the Ki (pKi) of 7.00. `CC1CN(C(=O)c2nc3n(n2)C(c2ccccc2)CC3)C1` (racemic) [Example 19, (3-methylazetidin-1-yl)-(5-phenyl-6,7-dihydro-5H-pyrrolo[1,2-b][1,2,4]triazol-2-yl)methanone]: the negative-log Ki (pKi) was 6.33. As to `O=C(c1nc2n(n1)[C@H](c1ccccc1)C[C@@H]2F)N1CCCn2nccc21` (racemic) [Example 80, 6,7-dihydro-5H-pyrazolo[1,5-a]pyrimidin-4-yl-[rac-(5S,7S)-7-fluoro-5-phenyl-6,7-dihydro-5H-pyrrolo[1,2-b][1,2,4]triazol-2-yl]methanone], the pKi is 7.00. With `O=C(c1nc2n(n1)CCOC2c1ccccc1F)N1CC(F)C1` (racemic) [Example 45, (3-fluoroazetidin-1-yl)-[8-(2-fluorophenyl)-6,8-dihydro-5H-[1,2,4]triazolo[5,1-c][1,4]oxazin-2-yl]methanone], the negative logarithm of the Ki (pKi) is 5.64.

`O=C(c1cc2n(n1)C(c1ccccc1)CC2)N1CC(F)(F)C1` (racemic) [Example 102, (3,3-difluoroazetidin-1-yl)-(6-phenyl-5,6-dihydro-4H-pyrrolo[1,2-b]pyrazol-2-yl)methanone] gave a negative-log Ki (pKi) of 6.62. `O=C(c1nc2n(n1)[C@H](c1ccccc1)C[C@@H]2F)N1CC(C(F)(F)F)C1` (racemic) [Example 50, [rac-(5S,7S)-7-fluoro-5-phenyl-6,7-dihydro-5H-pyrrolo[1,2-b][1,2,4]triazol-2-yl]-[3-(trifluoromethyl)azetidin-1-yl]methanone] had a pKi of 5.80.

Take `COCCN(CC(F)(F)F)C(=O)c1nc2n(n1)[C@H](c1ccccc1)C[C@@H]2F` (racemic) [Example 55, rac-(5S,7S)-7-fluoro-N-(2-methoxyethyl)-5-phenyl-N-(2,2,2-trifluoroethyl)-6,7-dihydro-5H-pyrrolo[1,2-b][1,2,4]triazole-2-carboxamide]: the pKi is 5.41.
